What all share (type): cell-based
Assay [1] concerns the target T1, human muscarinic M1 receptor (Homo sapiens, UniProt P11229).
T1 sequence (P11229 1-460): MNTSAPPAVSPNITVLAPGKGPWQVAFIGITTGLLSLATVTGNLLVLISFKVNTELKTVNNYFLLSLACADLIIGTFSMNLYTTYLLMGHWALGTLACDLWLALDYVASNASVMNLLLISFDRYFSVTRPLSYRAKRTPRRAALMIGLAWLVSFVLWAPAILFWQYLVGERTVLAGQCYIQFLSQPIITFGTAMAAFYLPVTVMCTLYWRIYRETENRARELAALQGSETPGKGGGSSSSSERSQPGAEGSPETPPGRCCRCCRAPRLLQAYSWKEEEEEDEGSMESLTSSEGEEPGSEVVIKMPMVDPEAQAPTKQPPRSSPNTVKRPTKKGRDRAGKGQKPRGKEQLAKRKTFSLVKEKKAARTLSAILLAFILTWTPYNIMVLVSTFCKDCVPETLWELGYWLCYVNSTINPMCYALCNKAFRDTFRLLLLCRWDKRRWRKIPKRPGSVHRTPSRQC
Description: Alphascreen Surefire phospho-ERK1/2 functional assay, M1. Conditions: for EC50: CHO cells stably expressing human M1, read-out: pEC50 M1 (converted); for % Emax cf. ACh, M1: CHO cells stably expressing human M1, relative to ACh; for Emax: CHO, read-out: % Emax cf. ACh, M1, CHO cells stably expressing human M1, relative to ACh. (In Alpha technology, singlet oxygen from a donor bead excites a nearby acceptor bead.)

The target of assay [2] is T2, human muscarinic M2 receptor (Homo sapiens, UniProt P08172).
T2 sequence (P08172 1-466): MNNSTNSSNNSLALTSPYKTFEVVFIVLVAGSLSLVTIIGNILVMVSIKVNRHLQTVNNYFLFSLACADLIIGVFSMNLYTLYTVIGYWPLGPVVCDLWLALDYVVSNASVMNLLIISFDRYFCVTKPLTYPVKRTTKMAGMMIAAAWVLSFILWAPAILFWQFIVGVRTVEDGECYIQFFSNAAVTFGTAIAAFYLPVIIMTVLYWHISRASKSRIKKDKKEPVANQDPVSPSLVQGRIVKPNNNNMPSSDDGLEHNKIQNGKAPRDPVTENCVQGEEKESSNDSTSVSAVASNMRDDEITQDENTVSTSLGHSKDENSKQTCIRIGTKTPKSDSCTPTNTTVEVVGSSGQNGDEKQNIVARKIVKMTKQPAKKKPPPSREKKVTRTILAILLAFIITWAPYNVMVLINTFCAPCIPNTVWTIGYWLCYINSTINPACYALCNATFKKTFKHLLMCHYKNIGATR
The assay can be described thus: Alphascreen Surefire phospho-ERK1/2 functional assay, M2. The note with it: for % Emax cf. ACh, M2: CHO cells stably expressing human M2, relative to ACh; for EC50: CHO cells stably expressing human M2, read-out: pEC50 M2 (converted); for Emax: CHO, read-out: % Emax cf. ACh, M2, CHO cells stably expressing human M2, relative to ACh. Here is the method: (§1) ERK1/2 phosphorylation is a downstream consequence of both Gq/11 and Gi/o protein coupled receptor activation, making it highly suitable for the assessment of M1, M3 (Gq/11 coupled) and M2, M4 receptors (Gi/o coupled), rather than using different assay formats for different receptor subtypes. CHO cells stably expressing the human muscarinic M1, M2, M3 or M4 receptor were plated (25K/well) onto 96-well tissue culture plates in MEM-alpha+10% dialysed FBS. Once adhered, cells were serum-starved overnight. Agonist stimulation was performed by the addition of 5 μL agonist to the cells for 5 min (37° C.). Media was removed and 50 μL of lysis buffer added. […] Plates were incubated for 2 h with gentle agitation in the dark and then read on a PHERAstar plate reader.
(§2) pEC50 and Emax figures were calculated from the resulting data for each receptor subtype.

The target in assay [3] is T3, human muscarinic M3 receptor (Homo sapiens, UniProt P20309).
T3 construct: expressed in transfected cells
T3 sequence (P20309 whole entry): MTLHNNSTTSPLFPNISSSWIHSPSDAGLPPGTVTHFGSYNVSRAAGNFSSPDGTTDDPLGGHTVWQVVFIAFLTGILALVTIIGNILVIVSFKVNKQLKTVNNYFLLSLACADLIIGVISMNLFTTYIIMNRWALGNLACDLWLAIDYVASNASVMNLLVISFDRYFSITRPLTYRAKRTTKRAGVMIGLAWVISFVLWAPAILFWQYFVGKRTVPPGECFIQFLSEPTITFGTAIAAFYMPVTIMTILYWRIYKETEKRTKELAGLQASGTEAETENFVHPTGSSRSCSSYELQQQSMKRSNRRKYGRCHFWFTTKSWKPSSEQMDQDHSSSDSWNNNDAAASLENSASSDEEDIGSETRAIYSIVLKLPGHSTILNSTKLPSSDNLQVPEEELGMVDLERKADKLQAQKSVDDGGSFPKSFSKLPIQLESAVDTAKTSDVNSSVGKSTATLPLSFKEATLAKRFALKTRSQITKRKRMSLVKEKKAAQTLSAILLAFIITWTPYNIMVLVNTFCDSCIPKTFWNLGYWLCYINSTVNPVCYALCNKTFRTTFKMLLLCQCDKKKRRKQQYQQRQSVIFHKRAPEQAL
Description: Alphascreen Surefire phospho-ERK1/2 functional assay, M3. Conditions: for % Emax cf. ACh, M3: CHO cells stably expressing human M3, relative to ACh; for EC50: CHO cells stably expressing human M3, read-out: pEC50 M3 (converted); for Emax: CHO, read-out: % Emax cf. ACh, M3, CHO cells stably expressing human M3, relative to ACh. Here is the method: as §1, §2

The target of assay [4] is T4, human muscarinic M4 receptor (Homo sapiens, UniProt P08173).
T4 construct: expressed in transfected cells
T4 sequence (P08173 1-479): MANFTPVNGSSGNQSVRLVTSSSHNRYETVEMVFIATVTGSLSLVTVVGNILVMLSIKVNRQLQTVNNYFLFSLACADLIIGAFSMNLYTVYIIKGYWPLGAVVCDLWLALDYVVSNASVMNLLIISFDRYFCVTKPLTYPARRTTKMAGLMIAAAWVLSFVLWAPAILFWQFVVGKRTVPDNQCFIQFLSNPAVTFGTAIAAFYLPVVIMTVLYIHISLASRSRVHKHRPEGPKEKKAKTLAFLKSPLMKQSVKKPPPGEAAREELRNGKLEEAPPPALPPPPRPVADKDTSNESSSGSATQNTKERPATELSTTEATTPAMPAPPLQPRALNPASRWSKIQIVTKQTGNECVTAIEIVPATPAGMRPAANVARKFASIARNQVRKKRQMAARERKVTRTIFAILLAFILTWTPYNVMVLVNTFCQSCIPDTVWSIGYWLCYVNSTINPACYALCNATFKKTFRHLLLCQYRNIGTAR
The assay can be described thus: Alphascreen Surefire phospho-ERK1/2 functional assay, M4. The note with it: for EC50: CHO cells stably expressing human M4, read-out: pEC50 M4 (converted); for % Emax cf. ACh, M4: CHO cells stably expressing human M4, relative to ACh; for Emax: CHO, read-out: % Emax cf. ACh, M4, CHO cells stably expressing human M4, relative to ACh.

SMILES strings stand for the structures. A value given as a limit tells only on which side of the number the result lay.

Regarding `CCOC(=O)N1C2CCC1CC(N1CCC3(CC1)OC(=O)NC3C(C)C)C2` (single isomer, unassigned) [Example 2-17 Isomer 2], the EC50 in assay [1] is 200 nM; in assay [4] it was 100 nM. The “% Emax cf. ACh, M1” value in assay [1] (listed as 2-17 Isomer 2) is on record as 117%. Further, the “% Emax cf. ACh, M2” value in assay [2] stood at 3%. In addition, the “% Emax cf. ACh, M3” value in assay [3] (listed as 2-17 Isomer 2) was found to be 12%. Further, the “% Emax cf. ACh, M4” value in assay [4] (listed as 2-17 Isomer 2) turned out to be 72%.

Take `CCCN1CC2(CCN(C3CC4CCC(C3)N4C(=O)OCC)CC2)CC1=O` (single isomer, unassigned) [Example 2-25 Isomer 2, ethyl 3-(3-oxo-2-propyl-2,8-diazaspiro[4.5]dec-8-yl)-8-azabicyclo[3.2.1]octane-8-carboxylate]: the EC50 in assay [1] is 251 nM; in assay [2], > 20000 nM; in assay [3] it was > 20000 nM; in assay [4] it was 251 nM. In addition, the Emax (as a rule, the greatest response seen or fitted, relative to the assay's reference) came out at 53% in assay [1], 15% in assay [2], 12% in assay [3] and 25% in assay [4].

`[2H]C([2H])(C)OC(=O)N1C2CCC1CC(N1CCC3(CC1)CNC(=O)C3)C2` (single isomer, unassigned) [Example 2-30 Isomer 2, (1,1-^2H2)ethyl 3-(3-oxo-2,8-diazaspiro[4.5]dec-8-yl)-8-azabicyclo[3.2.1]octane-8-carboxylate]: the EC50 in assay [1] is 31.6 nM; in assay [2] it was > 20000 nM; in assay [3] it was > 20000 nM; in assay [4] it was 79.4 nM. The “% Emax cf. ACh, M1” value in assay [1] (listed as 2-30 Isomer 2) amounted to 66%. In addition, the Emax was 9% in assay [2] and 16% in assay [3]. In addition, the “% Emax cf. ACh, M4” value in assay [4] worked out at 29%.

For the molecule `[2H]C([2H])([2H])COC(=O)N1C2CCC1CC(N1CCC3(CC1)CNC(=O)C3)C2` (single isomer, unassigned) [Example 2-31 Isomer 2], the EC50 in assay [1] is 25.1 nM; in assay [2] it was > 20000 nM; in assay [3], > 20000 nM; in assay [4], 25.1 nM. Also, in assay [1] (listed as 2-31 Isomer 2), the “% Emax cf. ACh, M1” value is reported as 76%. Moreover, the Emax was 11% in assay [2] and 8% in assay [3]. The “% Emax cf. ACh, M4” value in assay [4] (listed as 2-31 Isomer 2) was determined as 26%.

Consider `[2H]C([2H])([2H])C([2H])([2H])OC(=O)N1C2CCC1CC(N1CCC3(CC1)CNC(=O)C3)C2` (single isomer, unassigned) [Example 2-32 Isomer 1], for which the EC50 in assay [1] was 79.4 nM; in assay [2], > 20000 nM; in assay [3], > 20000 nM; in assay [4] it was 126 nM. Besides, the Emax in assay [1] amounted to 92%; in assay [2], 16%; in assay [4], 40%. Besides, in assay [3] (listed as 2-32 Isomer 1), the “% Emax cf. ACh, M3” value was 10%.

For `[2H]C([2H])([2H])C([2H])([2H])OC(=O)N1C2CCC1CC(N1CCC3(CC1)CNC(=O)C3)C2` (single isomer, unassigned) [Example 2-32 Isomer 2], in assay [1], the EC50 was 31.6 nM and the “% Emax cf. ACh, M1” value turned out to be 77%. In assay [2], the “% Emax cf. ACh, M2” value amounted to 15%. Besides, the “% Emax cf. ACh, M3” value in assay [3] (listed as 2-32 Isomer 2) came out at 1%. Also, in assay [4], the EC50 is 50.1 nM and the “% Emax cf. ACh, M4” value is 48%.

For the molecule `CCOC(=O)N1CC2CCC1CC2N1CCC2(CC1)CNC(=O)C2` (single isomer, unassigned) [Example 3-1 Isomer 1, ethyl 5-(3-oxo-2,8-diazaspiro[4.5]dec-8-yl)-2-azabicyclo[2.2.2]octane-2-carboxylate], the EC50 in assay [1] is 1.26 nM; in assay [2], 10 nM; in assay [3] it was > 20000 nM; in assay [4], 3.98 nM. Moreover, the “% Emax cf. ACh, M1” value in assay [1] (listed as 3-1 Isomer 1) came out at 111%. The “% Emax cf. ACh, M2” value in assay [2] (listed as 3-1 Isomer 1) is given as 63%. Further, the “% Emax cf. ACh, M3” value in assay [3] (listed as 3-1 Isomer 1) turned out to be 6%. The “% Emax cf. ACh, M4” value in assay [4] (listed as 3-1 Isomer 1) turned out to be 61%.

Turning to `CCOC(=O)N1CC2CCC1CC2N1CCC2(CC1)CNC(=O)C2` (single isomer, unassigned) [Example 3-1 Isomer 2, ethyl 5-(3-oxo-2,8-diazaspiro[4.5]dec-8-yl)-2-azabicyclo[2.2.2]octane-2-carboxylate], the EC50 in assay [1] is 63.1 nM; in assay [2], > 20000 nM; in assay [4], 251 nM. In assay [1] (listed as 3-1 Isomer 2), the “% Emax cf. ACh, M1” value is reported as 94%. Moreover, the “% Emax cf. ACh, M2” value in assay [2] (listed as 3-1 Isomer 2) came to 11%. Also, in assay [3] (listed as 3-1 Isomer 2), the “% Emax cf. ACh, M3” value is 1%. For the same molecule, in assay [4] (listed as 3-1 Isomer 2), the “% Emax cf. ACh, M4” value is recorded as 31%.

On to `CCOC(=O)N1CC2CCC1CC2N1CCC2(CC1)CNC(=O)C2` (single isomer, unassigned) [Example 3-1 Isomer 3, ethyl 5-(3-oxo-2,8-diazaspiro[4.5]dec-8-yl)-2-azabicyclo[2.2.2]octane-2-carboxylate], for which the EC50 in assay [1] was 39.8 nM; in assay [2], > 20000 nM; in assay [4], 158 nM. Also, the “% Emax cf. ACh, M1” value in assay [1] (listed as 3-1 Isomer 3) is 101%. In addition, the “% Emax cf. ACh, M2” value in assay [2] (listed as 3-1 Isomer 3) worked out at 17%. The “% Emax cf. ACh, M3” value in assay [3] (listed as 3-1 Isomer 3) is recorded as 16%. In assay [4] (listed as 3-1 Isomer 3), the “% Emax cf. ACh, M4” value is recorded as 41%.

Consider `CCOC(=O)N1C2CCCC1CC(N1CCC3(CC1)CNC(=O)C3)C2` (single isomer, unassigned) [Example 5-1 Isomer 1, ethyl 3-(3-oxo-2,8-diazaspiro[4.5]dec-8-yl)-9-azabicyclo[3.3.1]nonane-9-carboxylate], for which the EC50 in assay [1] was 316 nM; in assay [2], 7940 nM; in assay [3] it was > 20000 nM; in assay [4], 251 nM. Moreover, the “% Emax cf. ACh, M1” value in assay [1] (listed as 5-1 Isomer 1) was found to be 131%. Also, the results for the Emax in assay [2] and in assay [3] were 17% and 8%, respectively. The “% Emax cf. ACh, M4” value in assay [4] (listed as 5-1 Isomer 1) is 25%.

These data come from patent publication US12202843B2, “Muscarinic receptor agonists” (Nxera Pharma UK Limited, priority 2014, dated 2025).
